Values of other authors as cited in patent US6972133B1, “Degradable animal chewing article possessing enhanced safety, durability and mouth-feel” (Seefar Technologies, Inc., priority 1999, dated 2005).

Experiments:
[1] = tested on: fungi (including yeast) and algae; conditions: most active against fungi (including yeast) and algae
[2] = tested on: dogs

Row | Structure (SMILES) | anti-microbial activity [1] | LD50 oral toxicity [2] [mg/kg] | solubility in dilute alkali solution (dilute alkali solution) | solubility in ethanol (ethanol) | solubility in water (water, unmodified triclosan)
1 | Cc1ccc(S(=O)(=O)C(I)I)cc1 [DIMTS, diiodomethyl-p-tolylsulphone] | broad spectrum of anti-microbial activity |  |  |  | 
2 | Oc1cc(Cl)ccc1Oc1ccc(Cl)cc1Cl [triclosan, 2,4,4″-trichloro-2-hydroxydiphenylether] |  | > 5000 | sparingly soluble | soluble | insoluble
